Patent publication US20110150772A1, “MODULATORS OF CARNITINE OCTANOYLTRANSFERASE IN THE TREATMENT OF ACNE, OF SEBORRHOEIC DERMATITIS OR OF HYPERSEBORRHOEA” (GALDERMA RESEARCH & DEVELOPMENT, priority 2008, published 2011)

Tests used:
CROT gene expression = test: Expression of CROT in rat epidermal split containing sebaceous glands after topical PPARgamma agonist, real-time PCR; assay type: in vivo; settings: topical 1% in acetone, female Fuzzy rats, standardized to 18S, versus carrier group; for CROT Relative induction - Kinetics (Hours) 0: 0 hours; for CROT Relative induction - Kinetics (Hours) 8: 8 hours; for CROT Relative induction - Kinetics (Hours) 24: 24 hours; for CROT Relative induction - Kinetics (Hours) 48: 48 hours; for CROT Relative induction - Kinetics (Hours) 96: 96 hours
Source text: Animals: Species: rat • Strain: Ico: Hsd: FUZZY-fz • Gender: female • Age: 10 weeks
Number per batch: 40 (8 animals per group)
Treatment: Route of administration: topical • Compound/batch: PPARgamma agonists:
A: 5-{4-[2-(methylpyridin-2-ylamino)ethoxy]-benzyl}thiazolidine-2,4-dione
B: (2-methoxyethoxymethoxy)naphthalene-2-carboxylic acid [4′-(2,4-dioxothiazolidin-5-ylmethyl)biphenyl-3-ylmethyl]methylamide or rosiglitazone
C: (S)-2-ethoxy-3-{4-[6-(3-heptyl-1-methyl-ureido)pyridin-2-yl]phenyl}propionic acid • Doses: 1% • Carrier: acetone (001) • Duration 96 hours
Method of evaluation: The animals are weighed at the beginning and at the end of the study. Skin biopsies are taken (6 samples of skin excised per rat) in order to analyse the expression of the genes (RNA extraction, reverse transcriptase and real-time PCR). The samples are stored overnight at 4° C. before incubation in 1M sodium bromide (NaBr) for 2 hours at 37° C. After incubation, the samples are separated into epidermis or dermis. The epidermal samples are stored at […]. Under these conditions, the sebaceous glands are in the epidermal split. PCRs are carried out, beginning with the CNAs originating from the epidermal splits containing sebaceous glands from control rats or rats treated with a PPARγ agonist: the mRNA is extracted using a column and quantified. The quality of the mRNAs is measured and is represented by the 18S/28S ratio. The results are standardized with respect to 18S, expressed as relative induction versus untreated animals (carrier group). The statistical analysis is obtained using internal software based on a modified Monte Carlo statistical analysis.

[1] = system: CROT (carnitine O-octanoyltransferase) gene expression; test: Expression of CROT in Fuzzy rat epidermal split after 8 days of topical treatment, Affymetrix transcriptome analysis; assay type: in vivo; settings: female Fuzzy rats, topical 1% once a day for 8 days, Affymetrix 1368426_at, control condition 601
Protocol: Fuzzy rat epidermal split expression data
The studies are carried out in female Fuzzy rats (Hsd: Fuzzy-fz) ten weeks old at the beginning of the study. The animals are treated at a dose of 1% (PPARg agonist rosiglitazone in solution in acetone) once a day for 8 days. Two hours after the final treatment, the animals are sacrificed by euthanasia and the skin on the back is removed. After incubation in dispase, the epidermis carrying the sebaceous glands is detached from the dermis (epidermal split). After grinding of the samples, the mRNA is prepared using Qiagen columns, in accordance with the supplier's instructions. The material thus prepared is subjected to large-scale transcriptome analysis on an Affymetrix platform. The data are subsequently standardized and, after statistical analysis, the results produced are expressed in arbitrary expression units (see below) accompanied, for each piece of data, by a statistical value for presence of the transcript (presence=1; absence=0).
Table 2: Measurement of the Expression of CROT in an Epidermal Split after 8 Days of Topical Treatment of FUZZY Rat Females with a PPARγ Agonist (Rosiglitazone) at 1%

Compound | CROT Relative induction - Kinetics (Hours) 0 (CROT gene expression) | CROT Relative induction - Kinetics (Hours) 8 (CROT gene expression) | CROT Relative induction - Kinetics (Hours) 24 (CROT gene expression) | CROT Relative induction - Kinetics (Hours) 48 (CROT gene expression) | CROT Relative induction - Kinetics (Hours) 96 (CROT gene expression) | Expression after treatment with 1% rosiglitazone [1]
CN(CCOc1ccc(CC2SC(=O)NC2=O)cc1)c1ccccn1 (centres unmarked) [A, 5-{4-[2-(methylpyridin-2-ylamino)ethoxy]-benzyl}thiazolidine-2,4-dione] | 1 | 2.24 | 2.16 | 1.54 | 0.94 | 
CCCCCCCNC(=O)N(C)c1cccc(-c2ccc(C[C@H](OCC)C(=O)O)cc2)n1 [C, (S)-2-ethoxy-3-{4-[6-(3-heptyl-1-methyl-ureido)pyridin-2-yl]phenyl}propionic acid] | 1 | 0.40 | 0.52 | 0.36 | 0.20 | 
CN(CCOc1ccc(CC2SC(=O)NC2=O)cc1)c1ccccn1 (centres unmarked) [rosiglitazone] |  |  |  |  |  | 742 arbitrary expression units
